Laboratory results reported in ChEMBL document CHEMBL1201862, “PubChem BioAssay data set” (2004).
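Five compound concentrations were applied to cells in 96-well plates for 48 hours; endpoints were derived by simple linear interpolation of the resulting dose-response curve. GI50 = concentration required for 50% inhibition of growth.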 Active and inactive are the calls of the source. Rule as the data show it: active = GI50 up to about 1.1 µM and inactive = higher.

How the values were obtained:
Experiment in all cases: inhibition of tumour cell growth, NCI panel, 48 h
RXF 393 = tested on: RXF 393
SR = tested on: SR
T47D = tested on: T47D
SK-MEL-2 = tested on: SK-MEL-2
SF-295 = tested on: SF-295
PC-3 = tested on: PC-3
TK-10 = tested on: TK-10
CAKI-1 = tested on: CAKI-1
UACC-62 = tested on: UACC-62
BT-549 = tested on: BT-549
SW-620 = tested on: SW-620
NCI/ADR-RES = tested on: NCI/ADR-RES
NCI-H226 = tested on: NCI-H226
MDA-MB-231 = tested on: MDA-MB-231
KM-20L2 = tested on: KM-20L2
786-0 = tested on: 786-0
CCRF-CEM = tested on: CCRF-CEM
OVCAR-3 = tested on: OVCAR-3
KM12 = tested on: KM12
HCT-116 = tested on: HCT-116

Measured: GI50

CCOC1c2cc(OC)c(OC)cc2-c2ccc3ccccc3c2N1C (stereo not given)
inactive: RXF 393 21.7 µM | SR 7.78 µM | T47D 4.84 µM | SK-MEL-2 13.9 µM | SF-295 24.4 µM | PC-3 5.15 µM | TK-10 31.6 µM | CAKI-1 34.1 µM | UACC-62 12.6 µM | BT-549 12.6 µM | SW-620 8.65 µM | NCI/ADR-RES 29.7 µM | NCI-H226 19.2 µM | MDA-MB-231 13.5 µM | KM-20L2 15.3 µM | 786-0 16.8 µM | CCRF-CEM 18 µM | OVCAR-3 11.5 µM | KM12 2.66 µM | HCT-116 8.59 µM
